Data reported in patent US10449221B2, “Differentiation of stem cells into thyroid tissue” (TRUSTEES OF BOSTON UNIVERSITY, priority 2015, dated 2019).

Columns and labels:
hypothyroid mice = assay: TSH response test; assay type: in vivo, mouse; conditions: T3 4 μg per 100 g body weight i.p. daily for 4 days; all groups; data not shown
Method: To suppress endogenous production of T4 and TSH, T3 (4 μg per 100 g body weight (BW); Sigma T6397) was given daily by intraperitoneal injection for 4 days. 15 hours after the last injection, blood was taken from the submandibular vein to measure T4 and TSH after which a single injection of highly purified bTSH (Los Angeles Biomedical Research Institute, National Hormone and Peptide Program. Torrance, Calif.) at 30 mU per 100 g BW was given. 3 hours later blood samples were taken to assess the increase of total T4. Five mice per group (positive control group, Sham, and D30 ESCs recipients) were included in the experiment.

[1] = system: ESC-derived definitive endoderm; assay: Nkx2-1+ endoderm induction from ESC-derived endoderm, specification media day 6-14, flow cytometry on day 14; assay type: cell-based, mouse; conditions: sequential withdrawal of each individual factor from the WFKBE+2 cocktail
Method: Definitive endoderm induction was performed in complete serum-free differentiation medium (cSFDM) consisting of 75% IMDM (Invitrogen 12440) and 25% Ham's Modified F12 medium (Cellgro 10-080-CV) supplemented with N2 and B27+RA (Invitrogen 17502-048 and 17504-44), 0.05% BSA (Invitrogen 15260-037), […] L-glutamine (Invitrogen 25030-081), 0.05 mg/ml ascorbic acid (Sigma A4544) and 4.5×10^-4M MTG (Sigma M6145) as previously described (Gouon-Evans et al., 2006, Longmire et al., 2012). Undifferentiated ESCs were trypsinized to form a single cell suspension and plated onto Petri dishes (500,000 cells/10 cm dish) resulting in the formation of embryoid bodies (EBs) over 60 hours. EBs were dissociated by trypsinization (0.05%, 1 min, 37° C.) and plated as single cells into cSFDM supplemented with 50 ng/ml Activin A (R&D systems 338-AC) for an additional 60 hours. For Anteriorization of endoderm, on day 5 (120 total hours of differentiation) EBs were plated onto p100 Petri dishes in Nog/SB media: cSFDM supplemented with 100 ng/ml mNoggin (R&D 1967-NG) and 10 μM SB431542 (Sigma S4317) as previously described (Longmire et al., 2012). For Nkx2-1+ endoderm induction, EBs were plated on gelatin coated 6 well plates at the equivalent density of 200,000 cells/well in Specification media: cSFDM supplemented as stated in the text with 100 ng/ml mWnt3a (R&D 1324-WN), 10 ng/ml hFGF10 (R&D 345-FG), 10 ng/ml mKGF (R&D 5028-KG), 10 ng/ml mBMP4 (R&D 5020-BP), 20 ng/ml hEGF (R&D 236-EG), 250 ng/ml mFGF2 (R&D 3139-FB) and 100 ng/ml Heparin Sodium Salt (Sigma […]2-1mCherry+ cells, or the populations otherwise indicated in the text were sorted using MoFlo or […] II SORP high speed cell sorters and replated onto gelatin-coated 24 well plates on day 12-14 at a density of 5×10^4 cells/well. Where indicated in the text, small molecule inhibitors were dissolved in DMSO according to manufacturer's instructions and added to the culture media from day 6 to 14 at the following working concentrations: Dorsomorphin 4 μM (Sigma P5499), PD98059 20 μM, SB203580 10 μM (both from Cell Signaling Technology, PHZ1164 and 5633), and LY294002 […] (Promega V1201).

[2] = system: Nkx2-1GFP+; Pax8tdTomato trace+ iPSC-derived cells; assay: Lineage specification of bifluorescent reporter iPSC line by day 14; assay type: cell-based, mouse; conditions: factor withdrawn or removed from the Nkx2-1 induction media, data not shown
[3] = system: ESC-derived Nkx2-1+ cells; assay: Thyroid marker mRNA by real time RT-PCR on Day 26 after outgrowth of day 14 sorted Nkx2-1+ cells; assay type: cell-based, mouse; conditions: growth factors in specification media day 6 to 14; sorted day 14, replated until day 26
Method: For Anteriorization of endoderm, on day 5 (120 total hours of differentiation) EBs were plated onto p100 Petri dishes in Nog/SB media: cSFDM supplemented with 100 ng/ml mNoggin (R&D 1967-NG) and 10 μM SB431542 (Sigma S4317) as previously described (Longmire et al., 2012). For Nkx2-1+ endoderm induction, EBs were plated on gelatin coated 6 well plates at the equivalent density of 200,000 cells/well in Specification media: cSFDM supplemented as stated in the text with 100 ng/ml mWnt3a (R&D 1324-WN), 10 ng/ml hFGF10 (R&D 345-FG), 10 ng/ml mKGF (R&D 5028-KG), 10 ng/ml mBMP4 (R&D 5020-BP), 20 ng/ml hEGF (R&D 236-EG), 250 ng/ml mFGF2 (R&D 3139-FB) and 100 ng/ml Heparin Sodium Salt (Sigma […]2-1mCherry+ cells, or the populations otherwise indicated in the text were sorted using MoFlo or […] II SORP high speed cell sorters and replated onto gelatin-coated 24 well plates on day 12-14 at a density of 5×10^4 cells/well. […] Relative gene expression, normalized to 18S control, was calculated as fold change in 18S-normalized gene expression, over baseline, using the 2^(-ΔΔCT) method. […]

Molecule	endogenous TSH and T4 after exogenous T3 (hypothyroid mice)	Nkx2-1+ endodermal induction efficiency [1]	efficiency of lineage specification, percent yield of GFP+/tdTomato+ cells [2]	thyroid competence, thyroid marker mRNA on D26 [3]
N[C@@H](Cc1cc(I)c(Oc2ccc(O)c(I)c2)c(I)c1)C(=O)O [T3, Triiodothyronine]	TSH suppression and abrogated T4 secretion	–	–	–
Wingless-Type MMTV Integration Site Family protein, member 3A [Wnt3a]	–	dispensable for Nkx2-1 induction efficiency	no significant impact	does not alter thyroid lineage specification
